Laboratory results taken from patent US20140179745A1, “TOPICAL OPHTHALMOLOGICAL PHARMACEUTICAL COMPOSITION CONTAINING REGORAFENIB” (Bayer Healthcare LLC, priority 2012, published 2014).

Test: Thermodynamic solubility of regorafenib monohydrate in different solvents
Assay type: physicochemical
Conditions: thermodynamic from solid
From the text: Regorafenib monohydrate has a limited solubility profile.

Measured: solubility

CNC(=O)c1cc(Oc2ccc(NC(=O)Nc3ccc(Cl)c(C(F)(F)F)c3)c(F)c2)ccn1 [regorafenib monohydrate, 4-{4-[({[4-chloro-3-(trifluoromethyl)phenyl]amino}carbonyl)amino]-3-fluorophenoxy}-N-methylpyridine-2-carboxamide]
< 100 µg/mL: aqueous with cosolvent or surfactant or cyclodextrin, solvent HPβ-Cyclodextrin/water (10:90) | oil or lipid, solvent Light liquid paraffin | solvent Water
